Measured values as given in patent EP1153612A1, “ANTICANCER AGENT POTENTIATORS” (Tsuruo, Takashi, priority 1999, dated 2000).

Assays:
[1] = system: topoisomerase IIα; test: Amount of expression of topoisomerase IIα in whole cell extract by western blotting; type: cell-based, human; details: glucose starvation condition; 2.5, 5, and 10 µM; FIG. 17(b)
From the text: Topoisomerase II inhibiting anticancer drug stabilizes a complex (cleavable complex) consisting of the DNA and topoisomerase IIα occurring in a catalytic reaction process of topoisomerase IIα to cause DNA damage. Therefore, cell-killing effect of the topoisomerase II-inhibiting anticancer drug depends on the amount of intracellular expression of topoisomerase IIα essential for formation of the cleavable complex. Then, the amount of expression of topoisomerase IIα in the cultured cancer cell under the glucose starvation and hypoxia environment that are found in the solid cancer and the effect of the proteasome inhibiting agent to the amount of expression were examined.
The culture condition of cells is same as that described in Example 1 including the M phase synchronous culture method and culture under the glucose starvation condition. Culture under hypoxia condition, that is found in the solid cancer, similar to glucose starvation was carried out using the culture medium (that prepared by adding 5% FBS to RPMI1640 culture medium) under the ordinary condition in a Gaspack 100 anaerobic system (Becton Dickinson made). Culture under the glucose starvation condition and hypoxia condition was carried out for 14 hours .
With the purpose to prepare a whole cell extract solution, cells culture under the above described condition were washed with an ice-cooled PBS twice and then, cells were removed from the culture dish by using a cell scraper (Sumitomo Bakelite made) for collection. Cells collected were precipitated by centrifugation and then, dissolved in an SDS sample buffer to collect as the extract solution from all cells. For reference, the composition of the SDS sample buffer was 10% v/v, glycerol, 5% 2-mercaptoethanol, 2% SDS (sodium lauryl sulfate), and 62.5 mM tris-hydrochloric acid (pH 6.8).
The amount of topoisomerase IIα in the extract solution from all cells was measured by the western blotting method. The extract solution from all cells containing a total protein quantity of 30 µg was put on an SDS polyacrylamide gel (4-20 Multigel: Daiichi Pure Chemicals K.K. made) and subjected to electrophoresis in an electrophoresis buffer (25 mM tris, 192 mM glycine, and 0.1% SDS) in a 40 mA constant current for 1 hour. Subsequently, blotting was carried out in 4°C blotting buffer (25 mM tris, 192 mM glycine, and 20% methanol) in a 50 V constant voltage for 12 hours to transfer a protein separated in the SDS polyacrylamide gel to a nitrocellulose membrane. This nitrocellulose membrane was soaked in a blocking buffer (0.1% Tween 20, 4% skim milk-added PBS) for 1 hour to carry out blocking. The nitrocellulose membrane blocked was soaked in a solution, that was prepared by adding anti-topoisomerase IIα antibody (Cambridge Research Biochemicals Corp. made) of the final concentration 1 µg/ml as the primary antibody to the blocking buffer solution, for 1 hour. The nitrocellulose membrane was washed with the blocking buffer three times (5 minutes once), and then, soaked in the solution, in which a 1/1000 volume of an antimouse antibody (Amersham Pharmacia Biotech made) labeled with horse radish peroxidase as a secondary antibody had been added to the blocking buffer, for 1 hour. The nitrocellulose membrane was washed with the blocking buffer three times (5 minutes once), and then, washed with the PBS, to which 0.1% Tween 20 was added, three times (5 minutes once). The nitrocellulose membrane after completion of antibody reaction and washing was treated with the ECL reagent (Amersham Pharmacia Biotech made) after a handling manual and a topoisomerase IIα-specific signal was detected on an X-OMAT™AR film (Kodakmade). For reference, steps after blotting was carried out in a room temperature. […]
The cell culture condition for both M phase-synchronized culture method and culture under the glucose starvation condition was as described in Example 1. […]

[2] = system: topoisomerase I; test: Amount of expression of topoisomerase I in whole cell extract by western blotting; type: cell-based, human; details: ordinary and glucose starvation condition; 2.5, 5, and 10 µM; FIG. 17(a)
Method: The cell culture condition for both M phase-synchronized culture method and culture under the glucose starvation condition was as described in Example 1. M phase-synchronized cells were cultured in the culture medium, to which lactacystin of the final concentration 10 µM was added, or the culture medium, to which this was not added, as the proteasome inhibiting agent under the ordinary condition and the glucose starvation condition, respectively, for 13 hours. […] In order to examine sensitivity of cells against the topoisomerase I inhibiting agent, camptothecin (Yakult made), the drug was added to the culture medium to continue further culturing for 4 hours. Sensitivity of cells was measured by applying the colony formation method described in Example 1. On the other hand, the amount of expression of topoisomerase I that is the target molecule of camptothecin was measured by preparing the whole cell extract solution as described in Example 2 followed by the western blotting method. For reference, in measuring the amount of expression of topoisomerase I, regarding the proteasome inhibiting agents, clasto-lactacystin β lactone (Boston Biochem made), which is an activated form of lactacystin, was used in the final concentration of 2.5, 5, and 10 µM. Meanwhile, as the antibody against human topoisomerase I, a mouse monoclonal antibody established by Tsuruo et al. was used.

[3] = system: human colon adenocarcinoma cell HT-29; test: Sensitivity of cells to anticancer drug by colony formation method (M phase-synchronized cells, with or without proteasome inhibiting agent); type: cell-based; details: etoposide 5, 10, and 15 µg/ml, 1 hour, FIG. 1
Method: In the glucose starvation environment found in the solid cancer, the effect of combined use of the proteasome inhibitor in a human colon adenocarcinoma cell HT-29 with the anticancer drug targeting topoisomerase II was tested.
Concerning culture media, for a culture condition in a normal state, RPMI 1640 medium (Nissui Pharmaceutical Co.-made) to which a 5% FBS (fetal bovine serum) was added and for the culture condition in the glucose starvation state symbolically found in the solid cancer, RPMI 1640 medium (Lifetech Oriental-made), lacking glucose, in which the 5% FBS was added were used, respectively. Culture was carried out using a CO2 incubator (Tabai Espec-made) under conditions of 5% CO2/95% air and humidity 100%.
In order to test sensitivity to the anticancer drug, the cell cycle synchronization culture methodwas employed. Nocodazol (Sigma made) was used to synchronize the cell cycle, cells in a logarithmic proliferation phase were treated with 40 ng/ml Nocodazol for 9 hours, and cells accumulated in cell division phase (Mpahse) were collected by gentle pipetting. M phase-synchronized cells collected through these steps were washed with PBS (phosphate buffered saline) followed by inoculation of 1×10^5 cells per well of 12 well-culture plate.
M phase-synchronized cells were cultured under the normal condition and the glucose starvation condition to conduct treatments with the proteasome inhibiting agent and the anticancer drug as follows. For cells under the glucose starvation condition, the culture medium, to which the proteasome inhibiting agent and the protease inhibiting agent not inhibiting proteasome were added as the control group, and the culture medium, to which no inhibiting agent has been added, was used. For cells under the normal condition, the culture medium, to which each inhibiting agent was not added, was used. After inoculation of cells, culture was carried out for 13 hours in each culture medium. […]
Sensitivity of cells to the anticancer drug was measured using the colony formation method. As described above, cells treated with the proteasome inhibiting agent and the anticancer drug were washed with PBS followed by soaking in trypsin (Lifetech Oriental made) solution and removed from a culture dish to suspend in an ordinary culture medium. These cells were inoculated again in 500 to 5000 cells for a 10 cm culture dish and cultured for 10 to 12 days to form a colony. The colony formed was fixed by 10% formaldehyde solution and stainedwith 0.01% crystal violet (Wako Pure Chemicals made) solution. Number of colony was counted and a Cell survival rate was calculated assuming that the number of colonies untreated with the anticancer drug is 1.
For reference, the proteasome inhibiting agent and the protease inhibiting agent not inhibiting proteasome used as described above were as follows. • (1) Proteasome inhibiting agent • . […] MG115 (carbobenzoxy-L-Leucyl-L-Leucyl-L-Norvalinal): final concentration 2.5 µM (Peptide Institute Inc. made) • . MG132 (carbobenzoxy-L-Leucyl-L-Leucyl-Leucinal) : final concentration 2.5 µM (Peptide Institute Inc. made) • . Lactacystin, final concentration 10 µM (Kindly supplied from The Kitasato Institute made) • (2) Protease inhibiting agent not inhibiting proteasome • . E64, final concentration 25 µM (Peptide Institute Inc. made) • . ZLLal (carbobenzoxy-L-Leucyl-L-Leucinal): final concentration 25 µM (Peptide Institute Inc. made)
The cell culture condition for both M phase-synchronized culture method and culture under the glucose starvation condition was as described in Example 1. M phase-synchronized cells were cultured in the culture medium, to which lactacystin of the final concentration 10 µM was added, or the culture medium, to which this was not added, as the proteasome inhibiting agent under the ordinary condition and the glucose starvation condition, respectively, for 13 hours. […]

[4] = system: human colon cancer cell HT29; test: Anticancer therapy in human cancer cell-transplanted nude mouse model (size of tumor lump); type: in vivo, nude mouse BALB/cAnNCrj-nu/nu; details: Example 5; intraperitoneally three times every 4 days; etoposide 33 mg/kg, lactacystin 40 mg/kg; in combined use lactacystin 5 hours before etoposide; FIG. 11
From the text: A human colon cancer cell HT29 was transplanted subcutaneously to a nude mouse to examine a therapeutic effect of combined use of lactacystin, the proteasome inhibiting agent, with etoposide, the anticancer drug targeting topoisomerase II.
As an experimental animal, the nude mouse BALB/cAnNCrj-nu/nu of 8-week old female (Charles River Laboratories product) was used. In order to form a tumor lump in the nude mouse, 1×10^7 HT29 cells was subcutaneously transplanted. After 8 to 10 days of transplanting, the tumor lump of HT29 cells grew to […] and at this point, the therapy was started. […]
The therapy was conducted by dividing the HT29 tumor-transplanted mice into 4 groups to assign 4 animals to 1 group as follows by administering intraperitoneally three times every 4 days: (1) control group untreated with saline, (2) etoposide 33 mg/kg, (3) lactacystin 40 mg/kg, (4) lactacystin 40 mg/kg and etoposide 33 mg/kg. […] Since start of the therapy, a size of the tumor lump was measured to measure effect of the therapy by administration of drugs once every 4 days. […]
The effect of therapy by simultaneous administration of the proteasome inhibiting agent, lactacystin, and the topoisomerase II-targeting anticancer, doxorubicin was examined. […] After start of treatment, once every 4 to 5 days, the size of the tumor lump was measured to measure the effect of treatment by drug administration.

Row | SMILES | amount of expression of topoisomerase IIα [1] | amount of expression of topoisomerase I [2] | Cell survival (colony formation) with etoposide ([3]; glucose starvation condition) | Cell survival (colony formation) with etoposide ([3]; ordinary culture condition) | suppression of tumor proliferation (size of the tumor lump) [4]
1 | CC(C)[C@H](O)[C@@]12NC(=O)[C@H](C)[C@@H]1OC2=O [activated type of lactacystin, clasto-lactacystin β lactone] | the lowering of expression is perfectly inhibited | does not change |  |  | 
2 | COc1cc([C@@H]2c3cc4c(cc3[C@@H](O[C@@H]3O[C@@H]5CO[C@@H](C)O[C@H]5[C@H](O)[C@H]3O)[C@H]3COC(=O)[C@H]23)OCO4)cc(OC)c1O [etoposide] |  |  | cells showed resistance against etoposide to survive | almost all HT29 cells died | less suppression of tumor proliferation
